Experimental findings from patent US20260207615A1, “FLUOROPYRIDOPYRIMIDINE AND FLUOROQUINAZOLINE DERIVATIES AND METHODS OF USE THEREOF” (Frontier Medicines Corporation, priority 2022, published 2026) are described below.

A value given as a limit tells only on which side of the number the result lay.

In the experiment the target is T1, KRAS G12C and cRAF interaction (Homo sapiens, UniProt P01116, C118S/C51S/C80L/G12C).
T1 construct: truncated version comprising amino acids 1-169
T1 sequence (P01116 1-169 isoform P01116-2 G12C/C51S/C80L/C118S): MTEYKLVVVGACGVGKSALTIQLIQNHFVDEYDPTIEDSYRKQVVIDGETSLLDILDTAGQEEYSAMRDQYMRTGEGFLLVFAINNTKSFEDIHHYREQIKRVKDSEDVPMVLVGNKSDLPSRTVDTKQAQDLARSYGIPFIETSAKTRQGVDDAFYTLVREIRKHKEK
Nature of the experiment: Inhibition of KRAS G12C and cRAF binding (AlphaScreen). It is filed as biochemical. The settings on record: KRAS G12C (Cys-light, aa 1-169) preloaded with GMPPNP, cRaf RBD (aa 50-131), 2 hours incubation. The method, then:
The AlphaScreen technology was used to determine IC50s for compound inhibition of KRAS G12C (present as the Cys-light (C51S, C80L and C118S), truncated version comprising amino acids 1-169) and cRAF interaction. Compounds were diluted in 100% DMSO and each compound concentration was spotted at 200 nl/well onto low volume, white 384 well plates. The KRAS G12C contained a biotin-AviTag and the cRaf, as Ras-binding domain (amino acids 50-131, RBD), was GST-tagged. KRAS G12C was preloaded with the GTP analogue Guanosine 5′-[β,γ-imido]triphosphate (GMPPNP). The KRAS G12C was diluted in 25 mM Hepes, pH 7.4, 150 mM NaCl, 5 mM MgCl2, 0.01% TritonX-100 and 10 μM GMPPNP and added at 10 μl/well to compound-spotted plates resulting in a DMSO concentration of 2%. Plates were incubated for 2 hours. A mixture of RBD and the AlphaScreen streptavidin donor and glutathione acceptor beads diluted in 25 mM Hepes, pH 7.4, 150 mM NaCl, 5 mM MgCl2, 0.01% TritonX-100 and 2% DMSO was then added at 10 μl/well and incubated for 60-90 minutes before the samples were read for emission at 570 nm after excitation of the donor beads at 680 nm. All incubations were performed at room temperature. The final top compound concentration was 50 μM with 1:3 titrations for 10-point dose response curves. Final assay conditions were 0.5 nM KRAS G12C, 0.75 nM RBD and 5 μg/ml each of AlphaScreen donor and acceptor beads. IC50S were determined using nonlinear regression fit of [inhibitor] vs. response (4 parameters).
A counter assay was also set up to rule out inhibitors of the AlphaScreen technology itself. Compound plates were incubated for 2 hours as above with buffer only.
The AlphaScreen beads were added as above except biotin-AviTag-GST was substituted for the RBD. Samples were read and analyzed as above.
For orientation: IC50 means the concentration needed to halve the response being measured. High values mean weaker potency in that assay, low ones greater potency in that assay. In turn, `C=CC(=O)N1CCN(c2nc(OC[C@@]34CCCN3C[C@H](F)C4)nc3c(F)c(-c4cccc5ccc(F)c(F)c45)ncc23)C[C@@]12CCOC2` [Example 80] yielded an IC50 of 0.01 to 0.1 µM. In the case of `O=C(/C=C/CN1[C@@H]2CC[C@H]1COC2)N1CCN(c2nc(OC[C@@]34CCCN3C[C@H](F)C4)nc3c(F)c(-c4cccc(Cl)c4C(F)(F)F)ncc23)CC12COC2` [Example 56, (E)-4-((1R,5S)-3-oxa-8-azabicyclo[3.2.1]octan-8-yl)-1-(8-(7-(3-chloro-2-(trifluoromethyl)phenyl)-8-fluoro-2-(((2R,7aS)-2-fluorotetrahydro-1H-pyrrolizin-7a(5H)-yl)methoxy)pyrido[4,3-d]pyrimidin-4-yl)-2-oxa-5,8-diazaspiro[3.5]nonan-5-yl) but-2-en-1-one] it was under 0.01 µM; in that of `C=CC(=O)N1CCN(c2nc(OC[C@@]34CCCN3C[C@H](F)C4)nc3c(F)c(-c4cc(O)cc(Cl)c4C4CC4)c(Cl)cc23)CC12COC2` [Example 78, 1-(8-(6-chloro-7-(3-chloro-2-cyclopropyl-5-hydroxyphenyl)-8-fluoro-2-(((2R,7aS)-2-fluorotetrahydro-1H-pyrrolizin-7a(5H)-yl)methoxy)quinazolin-4-yl)-2-oxa-5,8-diazaspiro[3.5]nonan-5-yl) prop-2-en-1-one], under 0.01 µM; in that of `C#Cc1c(F)ccc2cccc(-c3ncc4c(N5CCN(C(=O)/C(F)=C/c6ccnc(C)n6)C6(COC6)C5)nc(OC[C@@]56CCCN5C[C@H](F)C6)nc4c3F)c12` [Example 49, (Z)-1-(8-(7-(8-ethynyl-7-fluoronaphthalen-1-yl)-8-fluoro-2-(((2R,7aS)-2-fluorotetrahydro-1H-pyrrolizin-7a(5H)-yl)methoxy)pyrido[4,3-d]pyrimidin-4-yl)-2-oxa-5,8-diazaspiro[3.5]nonan-5-yl)-2-fluoro-3-(2-methylpyrimidin-4-yl) prop-2-en-1-one], under 0.01 µM. For the molecule `O=C(/C=C/CN1CC2CCC(C1)O2)N1CCN(c2nc(OC[C@@]34CCCN3C[C@H](F)C4)nc3c(F)c(-c4cccc5ccc(F)c(F)c45)ncc23)CC12COC2` [Example 22, (E)-4-(8-oxa-3-azabicyclo[3.2.1]octan-3-yl)-1-(8-(7-(7,8-difluoronaphthalen-1-yl)-8-fluoro-2-(((2R,7aS)-2-fluorotetrahydro-1H-pyrrolizin-7a(5H)-yl)methoxy)pyrido[4,3-d]pyrimidin-4-yl)-2-oxa-5,8-diazaspiro[3.5]nonan-5-yl) but-2-en-1-one], the IC50 is under 0.01 µM. In the case of `CN1CC[C@@H]1/C=C/C(=O)N1CCN(c2nc(OC[C@@]34CCCN3C[C@H](F)C4)nc3c(F)c(-c4cccc(Cl)c4C(F)(F)F)ncc23)CC12COC2` [Example 76] it was at least 0.5 µM; in that of `C=CC(=O)N1CCN(c2nc(OC[C@@]34CCCN3C[C@H](F)C4)nc3c(F)c(-c4cccc5ccc(F)c(F)c45)ncc23)CC12COC2` [Example 35, 1-(8-(7-(7,8-difluoronaphthalen-1-yl)-8-fluoro-2-(((2R,7aS)-2-fluorotetrahydro-1H-pyrrolizin-7a(5H)-yl)methoxy)pyrido[4,3-d]pyrimidin-4-yl)-2-oxa-5,8-diazaspiro[3.5]nonan-5-yl) prop-2-en-1-one], under 0.01 µM. Take `C=CC(=O)N1CCN(c2nc(OC[C@@]34CCCN3C[C@H](F)C4)nc3c(F)c(-c4ccc(F)c5sc(N)nc45)c(C(F)(F)F)cc23)CC12CCOC2` (stereo partly shown) [Example 90]: the 50% inhibitory concentration (IC50) fell in the range of 0.01 to 0.1 µM. The molecule `C=CC(=O)N1[C@H](C)CN(c2nc(OC[C@@]34CCCN3C[C@H](F)C4)nc3c(F)c(-c4cccc5ccc(F)c(F)c45)ncc23)CC12COC2` [Example 64, 1-((R)-8-(7-(7,8-difluoronaphthalen-1-yl)-8-fluoro-2-(((2R,7aS)-2-fluorotetrahydro-1H-pyrrolizin-7a(5H)-yl)methoxy)pyrido[4,3-d]pyrimidin-4-yl)-6-methyl-2-oxa-5,8-diazaspiro[3.5]nonan-5-yl) prop-2-en-1-one] gave a half-maximal inhibitory concentration (IC50) of under 0.01 µM. In the case of `C=CC(=O)N1CCN(c2nc(OC[C@@]34CCCN3C[C@H](F)C4)nc3c(F)c(-c4ccc(F)c5sc(N)nc45)c(C(F)(F)F)cc23)C[C@@]12CCOC2` [Example 93], the concentration for half-maximal inhibition (IC50) was at least 0.5 µM.

Molecule `O=C(/C=C/CN1[C@@H]2CC[C@H]1COC2)N1CCN(c2nc(OC[C@@]34CCCN3C[C@H](F)C4)nc3c(F)c(-c4ccccc4C(F)F)ncc23)CC12COC2` [Example 26, (E)-4-((1R,5S)-3-oxa-8-azabicyclo[3.2.1]octan-8-yl)-1-(8-(7-(2-(difluoromethyl)phenyl)-8-fluoro-2-(((2R,7aS)-2-fluorotetrahydro-1H-pyrrolizin-7a(5H)-yl)methoxy)pyrido[4,3-d]pyrimidin-4-yl)-2-oxa-5,8-diazaspiro[3.5]nonan-5-yl) but-2-en-1-one] displayed an IC50 of 0.1 to 0.5 µM. The molecule `C=CC(=O)N1CCN(c2nc(OC[C@@]34CCCN3C[C@H](F)C4)nc3c(F)c(-c4ccc(F)c5sc(N)nc45)c(Cl)cc23)C[C@@]12CCOC2` [Example 91] displayed an IC50 of 0.1 to 0.5 µM.

In the case of `O=C(/C=C/CN1CC2CCC(C1)O2)N1CCN(c2nc(OC[C@@]34CCCN3C[C@H](F)C4)nc3c(F)c(-c4cccc5cccc(Cl)c45)ncc23)CC12COC2` [Example 15, (E)-4-(8-oxa-3-azabicyclo[3.2.1]octan-3-yl)-1-(8-(7-(8-chloronaphthalen-1-yl)-8-fluoro-2-(((2R,7aS)-2-fluorotetrahydro-1H-pyrrolizin-7a(5H)-yl)methoxy)pyrido[4,3-d]pyrimidin-4-yl)-2-oxa-5,8-diazaspiro[3.5]nonan-5-yl) but-2-en-1-one], the IC50 was in the range of 0.01 to 0.1 µM. Consider `C#Cc1c(F)ccc2cccc(-c3ncc4c(N5CCN(C(=O)/C=C/CN6CC[C@@H](F)C6)C6(COC6)C5)nc(OC[C@@]56CCCN5C[C@H](F)C6)nc4c3F)c12` [Example 44, (E)-1-(8-(7-(8-ethynyl-7-fluoronaphthalen-1-yl)-8-fluoro-2-(((2R,7aS)-2-fluorotetrahydro-1H-pyrrolizin-7a(5H)-yl)methoxy)pyrido[4,3-d]pyrimidin-4-yl)-2-oxa-5,8-diazaspiro[3.5]nonan-5-yl)-4-((R)-3-fluoropyrrolidin-1-yl) but-2-en-1-one], for which the IC50 is under 0.01 µM. In the case of `Cc1cc(/C=C/C(=O)N2CCN(c3nc(OC[C@@]45CCCN4C[C@H](F)C5)nc4c(F)c(-c5cccc6ccc(F)c(Cl)c56)ncc34)CC23COC3)nc(C)n1` [Example 27, (E)-1-(8-(7-(8-chloro-7-fluoronaphthalen-1-yl)-8-fluoro-2-(((2R,7aS)-2-fluorotetrahydro-1H-pyrrolizin-7a(5H)-yl)methoxy)pyrido[4,3-d]pyrimidin-4-yl)-2-oxa-5,8-diazaspiro[3.5]nonan-5-yl)-3-(2,6-dimethylpyrimidin-4-yl) prop-2-en-1-one] it was 0.01 to 0.1 µM. With `O=C(/C=C/CN1C[C@H]2C[C@@H]1CO2)N1CCN(c2nc(OC[C@@]34CCCN3C[C@H](F)C4)nc3c(F)c(-c4cccc(Cl)c4C(F)(F)F)ncc23)CC12COC2` [Example 68, (E)-4-((1R,4R)-2-oxa-5-azabicyclo[2.2.1]heptan-5-yl)-1-(8-(7-(3-chloro-2-(trifluoromethyl)phenyl)-8-fluoro-2-(((2R,7aS)-2-fluorotetrahydro-1H-pyrrolizin-7a(5H)-yl)methoxy)pyrido[4,3-d]pyrimidin-4-yl)-2-oxa-5,8-diazaspiro[3.5]nonan-5-yl) but-2-en-1-one], the IC50 was under 0.01 µM.

As to `CN(C/C=C/C(=O)N1CCN(c2nc(OC[C@@]34CCCN3C[C@H](F)C4)nc3c(F)c(-c4cccc5cccc(Cl)c45)ncc23)CC12COC2)CC1COC1` [Example 3, (E)-1-(8-(7-(8-chloronaphthalen-1-yl)-8-fluoro-2-(((2R,7aS)-2-fluorotetrahydro-1H-pyrrolizin-7a(5H)-yl)methoxy)pyrido[4,3-d]pyrimidin-4-yl)-2-oxa-5,8-diazaspiro[3.5]nonan-5-yl)-4-(methyl(oxetan-3-ylmethyl)amino)but-2-en-1-one], the 50% inhibitory concentration (IC50) is 0.01 to 0.1 µM. Turning to `Cc1cc(/C=C/C(=O)N2CCN(c3nc(OC[C@@]45CCCN4C[C@H](F)C5)nc4c(F)c(-c5cccc(Cl)c5C(F)(F)F)ncc34)CC23COC3)nc(C)n1` [Example 69], the IC50 was in the range of 0.1 to 0.5 µM. Molecule `O=C(/C=C/CN1[C@@H]2CC[C@H]1COC2)N1CCN(c2nc(OCC34CCCN3CCC4)nc3c(F)c(-c4cccc5cccc(Cl)c45)ncc23)CC12COC2` [Example 36, (E)-4-((1R,5S)-3-oxa-8-azabicyclo[3.2.1]octan-8-yl)-1-(8-(7-(8-chloronaphthalen-1-yl)-8-fluoro-2-((tetrahydro-1H-pyrrolizin-7a(5H)-yl)methoxy)pyrido[4,3-d]pyrimidin-4-yl)-2-oxa-5,8-diazaspiro[3.5]nonan-5-yl) but-2-en-1-one] gave a concentration for half-maximal inhibition (IC50) of under 0.01 µM.
